Experiments:
Acetyl-CoA carboxylase 1 = Acetyl-CoA carboxylase 1 (Homo sapiens, UniProt Q13085)
Description: Inhibition of recombinant human ACC1 using acetyl-Co A as substrate incubated for 60 mins in presence of ATP by ADP-Glo assay

[1] = Toxicity in Sprague-Dawley rat model of DEN-induced liver fibrosis assessed as animal mortality at 3 to 10 mg/kg, po qd treated for 4 weeks; type: organism-based; conditions: in vivo, 672 h, dose 3-10 mg/kg
[2] = Half life in Sprague-Dawley rat at 3 mg/kg, po measured for 0.25 to 24 hrs by LC-MS/MS analysis; type: ADME, organism-based; conditions: in vivo, time 0.25-24 hrs
[3] = Protein binding in rat plasma; type: ADME, cell-free; conditions: read-out: PPB (converted)
[4] = Clearance in Sprague-Dawley rat at 1 mg/kg, iv measured for 0.25 to 24 hrs by LC-MS/MS analysis; type: ADME, organism-based; conditions: in vivo, time 0.25-24 hrs
[5] = AUC (0 to t) in Sprague-Dawley rat at 3 mg/kg, po measured for 0.25 to 24 hrs by LC-MS/MS analysis; type: ADME, organism-based; conditions: in vivo, time 0.25-24 hrs
[6] = Suppression of Col1A1 mRNA expression in TGF-beta1-treated human LX2 cells incubated for 24 hrs by qPCR analysis; type: functional, cell-based; conditions: LX-2, 24 h
[7] = Biodistribution in liver of 12 hr-fasted male wild-type Sprague-Dawley rat at 3 mg/kg, po measured after 4 hrs by LC-MS/MS analysis; type: ADME, organism-based; conditions: in vivo
in vivo [8] = conditions: Sprague-Dawley, rat, plasma, po, 3 mg/kg
Description: Drug concentration in plasma of Sprague-Dawley rat at 3 mg/kg, po measured after 1 hr by LC-MS/MS analysis

[9] = Mutagenicity in Salmonella typhimurium by mini-Ames test; type: toxicity; conditions: salmonella enterica subsp. enterica serovar typhimurium
Cytochrome P450 2C19 = Cytochrome P450 2C19 (Homo sapiens, UniProt P33261); assay: Inhibition of CYP2C19 (unknown origin); type: ADME
[10] = Inhibition of fatty acid synthesis in human HepG2 cells preincubated for 1.5 hrs followed by [14C] acetate addition measured after 1.5 hrs by liquid scintillation counter analysis; type: functional, cell-based
[11] = Stability of compound assessed as compound isomerization by measuring retention time; type: physicochemical
[12] = Intrinsic clearance in mouse liver microsomes; type: ADME, Microsome; conditions: read-out: CLH
[13] = target: Voltage-gated inwardly rectifying potassium channel KCNH2 (Homo sapiens, UniProt Q12809); assay: Inhibition of hERG; type: toxicity
[14] = Stability of compound assessed as (1S,3s)-3-(6-carbamoyl-1-((R)-2-(2-methoxyphenyl)-2-((tetrahydro-2H-pyran-4-yl)oxy)ethyl)-5-methyl-2,4-dioxo-1,4-dihydrothieno[2,3-d]pyrimidin-3(2H)-y l)-1-methylcyclobutane-1-carboxylic acid metabolite formation by measuring retention time; type: ADME
[15] = Protein binding in human plasma; type: ADME, cell-free; conditions: read-out: PPB (converted)
[16] = Toxicity in Sprague-Dawley rat model of DEN-induced liver fibrosis assessed as drug tolerance at 3 to 10 mg/kg, po qd treated for 4 weeks; type: organism-based; conditions: in vivo, 672 h, dose 3-10 mg/kg
[17] = MRT (0 to t) in Sprague-Dawley rat at 3 mg/kg, po measured for 0.25 to 24 hrs by LC-MS/MS analysis; type: ADME, organism-based; conditions: in vivo, time 0.25-24 hrs
[18] = AUC (0 to t) in Sprague-Dawley rat at 1 mg/kg, iv measured for 0.25 to 24 hrs by LC-MS/MS analysis; type: ADME, organism-based; conditions: in vivo, time 0.25-24 hrs
in vivo [19] = conditions: Sprague-Dawley, rat, plasma, po, 3 mg/kg; remark: listed apart in the source
Description: Drug concentration in plasma of Sprague-Dawley rat at 3 mg/kg, po measured after 4 hrs by LC-MS/MS analysis

in vivo [20] = conditions: Sprague-Dawley, rat, liver, po, 3 mg/kg
Description: Drug concentration in liver of Sprague-Dawley rat at 3 mg/kg, po measured after 1 hr by LC-MS/MS analysis

[21] = Stability of compound assessed as (1S,3s)-3-(1-((R)-2-(2-hydroxyphenyl)-2-((tetrahydro-2H-pyran-4-yl)oxy)ethyl)-5-methyl-6-(oxazol-2-yl)-2,4-dioxo-1,4-dihydrothieno[2,3-d]pyrimidin-3(2H)-yl)-1-methylcyclobutane-1-carboxylic acid metabolite formation by measuring retention time; type: ADME
Cytochrome P450 2C9 = Cytochrome P450 2C9 (Homo sapiens, UniProt P11712); assay: Inhibition of CYP2C9 (unknown origin); type: ADME
[22] = Protein binding in mouse plasma; type: ADME, cell-free; conditions: read-out: PPB (converted)
[23] = Cmax in Sprague-Dawley rat at 3 mg/kg, po measured for 0.25 to 24 hrs by LC-MS/MS analysis; type: ADME, organism-based; conditions: in vivo, time 0.25-24 hrs
Cytochrome P450 2C8 = target: T1, Cytochrome P450 2C8 (Homo sapiens, UniProt P10632); assay: Inhibition of CYP2C8 (unknown origin); type: ADME
T1 sequence (P10632 whole entry): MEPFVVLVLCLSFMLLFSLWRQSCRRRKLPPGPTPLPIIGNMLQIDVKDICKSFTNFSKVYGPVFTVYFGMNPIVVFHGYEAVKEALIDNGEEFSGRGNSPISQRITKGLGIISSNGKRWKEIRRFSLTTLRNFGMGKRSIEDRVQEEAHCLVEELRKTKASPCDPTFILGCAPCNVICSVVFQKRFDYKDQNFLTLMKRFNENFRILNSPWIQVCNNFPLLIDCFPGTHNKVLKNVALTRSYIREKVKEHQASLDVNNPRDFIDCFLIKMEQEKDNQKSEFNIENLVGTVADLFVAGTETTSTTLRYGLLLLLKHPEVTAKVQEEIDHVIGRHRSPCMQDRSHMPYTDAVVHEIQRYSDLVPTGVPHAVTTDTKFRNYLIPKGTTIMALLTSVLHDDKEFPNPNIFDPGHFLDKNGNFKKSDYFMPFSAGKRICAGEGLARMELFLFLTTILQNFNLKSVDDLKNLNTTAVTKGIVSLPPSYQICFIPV

[24] = Stability of compound assessed as remaining parent compound by measuring retention time; type: physicochemical
in vivo [25] = conditions: Sprague-Dawley, rat, plasma, po, 3 mg/kg; remark: listed apart in the source
Description: Drug concentration in plasma of Sprague-Dawley rat at 3 mg/kg, po measured after 0.25 hrs by LC-MS/MS analysis

Cytochrome P450 2B6 = target: T2, Cytochrome P450 2B6 (Homo sapiens, UniProt P20813); assay: Inhibition of CYP2B6 (unknown origin); type: ADME
T2 sequence (P20813 whole entry): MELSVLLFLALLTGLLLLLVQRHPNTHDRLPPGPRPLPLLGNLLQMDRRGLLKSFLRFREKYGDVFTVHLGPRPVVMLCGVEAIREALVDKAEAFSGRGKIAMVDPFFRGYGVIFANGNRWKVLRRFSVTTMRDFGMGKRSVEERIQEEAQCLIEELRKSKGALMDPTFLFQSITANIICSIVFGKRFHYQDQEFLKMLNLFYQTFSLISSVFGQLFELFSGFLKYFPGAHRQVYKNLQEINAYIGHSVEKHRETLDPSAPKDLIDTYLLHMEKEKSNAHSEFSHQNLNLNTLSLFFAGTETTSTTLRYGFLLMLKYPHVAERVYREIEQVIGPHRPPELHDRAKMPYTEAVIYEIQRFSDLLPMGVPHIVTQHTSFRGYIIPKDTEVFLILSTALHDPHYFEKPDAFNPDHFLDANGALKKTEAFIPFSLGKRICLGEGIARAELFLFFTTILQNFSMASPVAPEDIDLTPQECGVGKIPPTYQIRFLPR

Sequence of Voltage-gated inwardly rectifying potassium channel KCNH2 (Q12809 whole entry): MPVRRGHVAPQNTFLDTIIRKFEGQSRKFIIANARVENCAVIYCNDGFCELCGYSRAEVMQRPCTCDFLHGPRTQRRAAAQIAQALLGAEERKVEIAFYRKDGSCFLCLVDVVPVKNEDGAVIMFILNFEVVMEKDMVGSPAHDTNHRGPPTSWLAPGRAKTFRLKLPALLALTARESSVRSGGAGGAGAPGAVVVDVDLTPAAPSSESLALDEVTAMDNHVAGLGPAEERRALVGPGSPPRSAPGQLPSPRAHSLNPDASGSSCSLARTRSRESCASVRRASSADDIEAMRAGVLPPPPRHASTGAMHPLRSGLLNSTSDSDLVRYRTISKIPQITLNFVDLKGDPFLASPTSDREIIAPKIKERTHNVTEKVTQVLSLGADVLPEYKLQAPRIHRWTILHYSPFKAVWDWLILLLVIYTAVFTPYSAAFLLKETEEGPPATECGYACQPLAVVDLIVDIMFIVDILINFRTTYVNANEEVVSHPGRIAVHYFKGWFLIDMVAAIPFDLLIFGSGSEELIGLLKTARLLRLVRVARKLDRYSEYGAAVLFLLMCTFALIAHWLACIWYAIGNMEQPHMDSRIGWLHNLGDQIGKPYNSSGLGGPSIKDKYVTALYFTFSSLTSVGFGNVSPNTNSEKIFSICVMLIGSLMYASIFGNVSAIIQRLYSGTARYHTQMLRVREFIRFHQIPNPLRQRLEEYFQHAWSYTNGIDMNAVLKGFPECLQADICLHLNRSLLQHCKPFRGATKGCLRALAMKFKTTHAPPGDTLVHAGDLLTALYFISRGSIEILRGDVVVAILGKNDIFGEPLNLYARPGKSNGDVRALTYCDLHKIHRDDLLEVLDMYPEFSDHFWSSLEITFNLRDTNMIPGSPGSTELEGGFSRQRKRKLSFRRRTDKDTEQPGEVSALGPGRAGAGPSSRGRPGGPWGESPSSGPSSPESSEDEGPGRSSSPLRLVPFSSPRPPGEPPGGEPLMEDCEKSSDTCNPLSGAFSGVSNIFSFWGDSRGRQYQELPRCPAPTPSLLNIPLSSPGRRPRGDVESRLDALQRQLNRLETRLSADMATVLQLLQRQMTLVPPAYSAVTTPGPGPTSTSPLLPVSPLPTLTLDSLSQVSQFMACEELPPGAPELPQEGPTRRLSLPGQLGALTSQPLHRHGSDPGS
Sequence of Cytochrome P450 2C9 (P11712 whole entry): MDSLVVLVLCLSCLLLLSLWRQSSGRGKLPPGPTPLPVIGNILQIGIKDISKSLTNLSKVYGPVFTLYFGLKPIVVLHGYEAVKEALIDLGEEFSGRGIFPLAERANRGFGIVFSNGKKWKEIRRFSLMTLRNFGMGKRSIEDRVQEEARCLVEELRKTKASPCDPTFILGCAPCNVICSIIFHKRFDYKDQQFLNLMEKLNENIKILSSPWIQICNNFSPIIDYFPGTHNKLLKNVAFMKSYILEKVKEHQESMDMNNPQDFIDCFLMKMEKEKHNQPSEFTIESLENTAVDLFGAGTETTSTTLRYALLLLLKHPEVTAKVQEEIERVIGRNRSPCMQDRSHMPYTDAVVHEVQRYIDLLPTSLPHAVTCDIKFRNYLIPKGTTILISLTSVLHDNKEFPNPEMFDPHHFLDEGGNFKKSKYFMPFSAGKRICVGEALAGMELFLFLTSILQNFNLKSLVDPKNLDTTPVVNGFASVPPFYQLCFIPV
Sequence of Cytochrome P450 2C19 (P33261 whole entry): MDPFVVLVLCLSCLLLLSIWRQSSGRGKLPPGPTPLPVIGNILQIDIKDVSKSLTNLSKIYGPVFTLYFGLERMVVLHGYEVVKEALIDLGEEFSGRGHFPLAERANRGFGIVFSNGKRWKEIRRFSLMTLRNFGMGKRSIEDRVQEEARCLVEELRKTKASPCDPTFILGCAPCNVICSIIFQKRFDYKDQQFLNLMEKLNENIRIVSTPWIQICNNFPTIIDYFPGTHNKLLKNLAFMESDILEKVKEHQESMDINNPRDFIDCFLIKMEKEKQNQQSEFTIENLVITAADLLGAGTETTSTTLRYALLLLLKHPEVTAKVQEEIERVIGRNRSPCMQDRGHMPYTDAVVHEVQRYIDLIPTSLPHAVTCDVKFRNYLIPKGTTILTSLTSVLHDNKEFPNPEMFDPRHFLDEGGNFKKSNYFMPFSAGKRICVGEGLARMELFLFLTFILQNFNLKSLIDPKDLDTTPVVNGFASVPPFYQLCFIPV

Q: For `COc1ccccc1[C@H](Cn1c(=O)n([C@H]2C[C@@](C)(C(=O)O)C2)c(=O)c2c(C)c(-c3ncco3)sc21)OC1CCOCC1`, which IC50 (Acetyl-CoA carboxylase 1) is on record?
A: Its IC50 is 0.73 nM.

Q: What about the Activity [1] of the same molecule?
A: Its Activity is “Non-toxic”.

Q: What about the half-life [2] of the same molecule?
A: The half-life was 3.3 h.

Q: What about the fraction unbound [3] of the same molecule?
A: Its fraction unbound is 0.029.

Q: And the clearance [4]?
A: The clearance was 63.3 mL/min/kg.

Q: What about the AUC(0-t) [5] of the same molecule?
A: The AUC(0-t) was 174 ng·h/mL.

Q: And the IC50 [6]?
A: Its IC50 is 507 nM.

Q: And the Drug uptake [7]?
A: The Drug uptake was “Active”.

Q: And the concentration at 1 h (in vivo [8])?
A: Its concentration at 1 h is 56.8 ng/mL.

Q: What about the Activity [9] of the same molecule?
A: Its Activity is “Non-toxic”.

Q: And the IC50 (Cytochrome P450 2C19)?
A: Its IC50 is greater than 30000 nM.

Q: And the IC50 [10]?
A: The IC50 was 6.9 nM.

Q: And the Retention_time [11]?
A: Its Retention_time is 11.01 min.

Q: And the CLint scaled [12]?
A: Its CLint scaled is 44.4 mL/min/kg.

Q: What about the IC50 [13] of the same molecule?
A: The IC50 was greater than 30000 nM.

Q: And the Retention_time [14]?
A: The Retention_time was 7.64 min.

Q: What about the fraction unbound [15] of the same molecule?
A: Its fraction unbound is 0.037.

Q: What about the Activity [16] of the same molecule?
A: Its Activity is “Non-toxic”.

Q: And the MRT last [17]?
A: The MRT last was 2.7 h.

Q: What about the AUC(0-t) [18] of the same molecule?
A: Its AUC(0-t) is 263 ng·h/mL.

Q: What about the concentration at 4 h (in vivo [19]) of the same molecule?
A: The concentration at 4 h was 72.8 ng/mL.

Q: What about the concentration at 1 h (in vivo [20]) of the same molecule?
A: Its concentration at 1 h is 2940 ng/mL.

Q: And the Retention_time [21]?
A: The Retention_time was 9.36 min.

Q: And the IC50 (Cytochrome P450 2C9)?
A: Its IC50 is greater than 30000 nM.

Q: What about the fraction unbound [22] of the same molecule?
A: Its fraction unbound is 0.054.

Q: And the Cmax [23]?
A: Its Cmax is 38 ng/mL.

Q: And the IC50 (Cytochrome P450 2C8)?
A: The IC50 was greater than 30000 nM.

Q: What about the Retention_time [24] of the same molecule?
A: Its Retention_time is 10.61 min.

Q: What about the concentration at 0.25 h (in vivo [25]) of the same molecule?
A: Its concentration at 0.25 h is 13.7 ng/mL.

Q: And the IC50 (Cytochrome P450 2B6)?
A: The IC50 was greater than 30000 nM.
